Assay results from patent EP0455432A1, “Alpha-glycosyl naringin, and its preparation and uses” (KABUSHIKI KAISHA HAYASHIBARA SEIBUTSU KAGAKU KENKYUJO, priority 1990, dated 1991).

System: α-glucosidase (EC 3.2.1.20) derived from pig liver

Question: Which “hydrolysis by α-glucosidase” value does the source give for α-Glucosyl naringin here?
Answer: The value was “hydrolyzed α-glucosyl naringin into naringin and D-glucose”.
